According to patent publication US12180187B2, “1-phenyl-5-azinylpyrazolyl-3-oxyalkyl acids and their use for controlling unwanted plant growth” (BAYER AKTIENGESELLSCHAFT, priority 2019, dated 2024):

What was measured:
SETVI [1] = assay: Post-emergence action against SETVI, 1.28 kg/ha; format: in vivo, Setaria viridis; settings: dosage 1280 g/ha, visual rating about 3 weeks after treatment vs untreated controls
In short: (§1)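 Weeds grown in sandy loam in a greenhouse were sprayed at the one-leaf stage, 2–3 weeks after sowing, with WP or EC formulations in water containing 0.5% additive at 600 L/ha. About 3 weeks later, damage was scored visually versus untreated controls (0% = like control, 100% = dead).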

ABUTH = assay: Post-emergence action against ABUTH, 1.28 kg/ha; format: in vivo, Abutilon theophrasti; settings: dosage 1280 g/ha, visual rating about 3 weeks after treatment vs untreated controls (100% = plants died)
In short: as §1

VERPE [2] = assay: Post-emergence action against VERPE, 1.28 kg/ha; format: in vivo, Veronica persica; settings: dosage 1280 g/ha, visual rating about 3 weeks after treatment vs untreated controls (100% = plants died)
In short: as §1

ALOMY [3] = assay: Pre-emergence action against ALOMY, 1280 g/ha; format: in vivo, Alopecurus myosuroides; settings: visual scoring after about 3 weeks vs untreated controls, 100% = plants have died, 0% = like control plants
In short: (§2)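 Greenhouse pre-emergence test on sown seeds in sandy loam; soil-surface spray of formulated compound with 0.5% additive at 600 L/ha water. Scored visually, % vs untreated, after about 3 weeks.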

KCHSC [4] = assay: Post-emergence action against KCHSC, 1.28 kg/ha; format: in vivo, Bassia scoparia; settings: dosage 1280 g/ha, visual rating about 3 weeks after treatment vs untreated controls (100% = plants died)
In short: as §1

DIGSA [5] = assay: Post-emergence action against DIGSA, 1.28 kg/ha; format: in vivo, Digitaria sanguinalis; settings: dosage 1280 g/ha, visual rating about 3 weeks after treatment vs untreated controls
In short: as §1

SETVI [6] = assay: Pre-emergence action against SETVI, 1280 g/ha; format: in vivo, Setaria viridis; settings: visual scoring after about 3 weeks vs untreated controls, 100% = plants have died, 0% = like control plants
In short: as §2

ALOMY [7] = assay: Post-emergence action against ALOMY, 1.28 kg/ha; format: in vivo, Alopecurus myosuroides; settings: dosage 1280 g/ha, visual rating about 3 weeks after treatment vs untreated controls
In short: as §1

STEME [8] = assay: Pre-emergence action against STEME, 1280 g/ha; format: in vivo, Stellaria media; settings: scored visually after about 3 weeks vs untreated controls (100% = plants have died)
In short: as §2

VERPE [9] = assay: Pre-emergence action against VERPE, 1280 g/ha; format: in vivo, Veronica persica; settings: scored visually after about 3 weeks vs untreated controls (100% = plants have died)
In short: as §2

KCHSC [10] = assay: Pre-emergence action against KCHSC, 1280 g/ha; format: in vivo, Bassia scoparia; settings: scored visually after about 3 weeks vs untreated controls (100% = plants have died)
Text: 1. Pre-Emergence Herbicidal Effect and Crop Plant Compatibility a) Seeds of mono- and dicotyledonous weed plants are placed in plastic pots in sandy loam soil (doubly sown with one species each of mono- or dicotyledonous weed plants per pot) and covered with soil. The compounds of the invention, formulated in the form of wettable powders (WP) or as emulsion concentrates (EC), are then applied onto the surface of the covering soil as aqueous suspension or emulsion with addition of 0.5% additive at a water application rate equivalent to 600 litres per hectare. After the treatment, the pots are placed in a greenhouse and kept under good growth conditions for the trial plants. After about 3 weeks, the effect of the preparations is scored visually in comparison with untreated controls as percentages. For example, 100% activity=the plants have died, 0% activity=like control plants. 1. Pre-Emergence Effectiveness Tables 1 to 12 below show the effects of selected compounds of the general formula (I) according to Tables 1 and 2 on various harmful plants and at an application rate corresponding to 1280 g/ha, which were obtained by the experimental procedure mentioned above.

AMARE [11] = assay: Post-emergence action against AMARE, 1.28 kg/ha; format: in vivo, Amaranthus retroflexus; settings: dosage 1280 g/ha, visual rating about 3 weeks after treatment vs untreated controls (100% = plants died)
In short: as §1

MATIN [12] = assay: Post-emergence action against MATIN, 1.28 kg/ha; format: in vivo, Tripleurospermum inodorum (Matricaria inodora); settings: dosage 1280 g/ha, visual rating about 3 weeks after treatment vs untreated controls (100% = plants died)
In short: as §1

AMARE [13] = assay: Pre-emergence action against AMARE, 1280 g/ha; format: in vivo, Amaranthus retroflexus; settings: scored visually after about 3 weeks vs untreated controls (100% = plants have died)
In short: as §2

ECHCG [14] = assay: Post-emergence action against ECHCG, 1.28 kg/ha; format: in vivo, Echinochloa crus-galli; settings: dosage 1280 g/ha, visual rating about 3 weeks after treatment vs untreated controls
In short: as §1

DIGSA [15] = assay: Pre-emergence action against DIGSA, 1280 g/ha; format: in vivo, Digitaria sanguinalis; settings: visual scoring after about 3 weeks vs untreated controls, 100% = plants have died, 0% = like control plants
In short: as §2

LOLRI = assay: Pre-emergence action against LOLRI, 1280 g/ha; format: in vivo, Lolium rigidum; settings: visual scoring after about 3 weeks vs untreated controls, 100% = plants have died, 0% = like control plants
In short: as §2

MATIN [16] = assay: Pre-emergence action against MATIN, 1280 g/ha; format: in vivo, Tripleurospermum inodorum (Matricaria inodora); settings: scored visually after about 3 weeks vs untreated controls (100% = plants have died)
In short: as §2

STEME [17] = assay: Post-emergence action against STEME, 1.28 kg/ha; format: in vivo, Stellaria media; settings: dosage 1280 g/ha, visual rating about 3 weeks after treatment vs untreated controls (100% = plants died)
In short: as §1

POAAN [18] = assay: Post-emergence action against POAAN, 1.28 kg/ha; format: in vivo, Poa annua; settings: dosage 1280 g/ha, visual rating about 3 weeks after treatment vs untreated controls
In short: as §1

ECHCG [19] = assay: Pre-emergence action against ECHCG, 1280 g/ha; format: in vivo, Echinochloa crus-galli; settings: visual scoring after about 3 weeks vs untreated controls, 100% = plants have died, 0% = like control plants
In short: as §2

POAAN [20] = assay: Pre-emergence action against POAAN, 1280 g/ha; format: in vivo, Poa annua; settings: visual scoring after about 3 weeks vs untreated controls, 100% = plants have died, 0% = like control plants
In short: as §2

O=C(O)C1CCCN1C(=O)COc1nn(-c2ccccc2F)c(-c2ccc(F)nc2)c1Br (centres unmarked) [Example X-009]
100%: Post-emergence action against SETVI (SETVI [1]) | Post-emergence action against ABUTH (ABUTH) | Post-emergence action against VERPE (VERPE [2]) | Pre-emergence action against ALOMY (ALOMY [3]) | Pre-emergence action against SETVI (SETVI [6]) | Post-emergence action against ALOMY (ALOMY [7]) | Pre-emergence action against STEME (STEME [8]) | Pre-emergence action against VERPE (VERPE [9]) | Post-emergence action against AMARE (AMARE [11]) | Pre-emergence action against AMARE (AMARE [13]) | Post-emergence action against ECHCG (ECHCG [14]) | Pre-emergence action against LOLRI (LOLRI) | Pre-emergence action against MATIN (MATIN [16]) | Post-emergence action against STEME (STEME [17]) | Post-emergence action against POAAN (POAAN [18]) | Pre-emergence action against ECHCG (ECHCG [19]) | Pre-emergence action against POAAN (POAAN [20])
90%: Post-emergence action against KCHSC (KCHSC [4]) | Post-emergence action against DIGSA (DIGSA [5]) | Pre-emergence action against KCHSC (KCHSC [10]) | Post-emergence action against MATIN (MATIN [12]) | Pre-emergence action against DIGSA (DIGSA [15])

O=C(COc1nn(-c2ccc(F)cc2F)c(-c2ccc(F)nc2)c1Br)NO [Example X-028]
100%: Post-emergence action against VERPE (VERPE [2]) | Pre-emergence action against SETVI (SETVI [6]) | Post-emergence action against ALOMY (ALOMY [7]) | Pre-emergence action against STEME (STEME [8]) | Pre-emergence action against KCHSC (KCHSC [10]) | Post-emergence action against MATIN (MATIN [12]) | Pre-emergence action against AMARE (AMARE [13]) | Post-emergence action against ECHCG (ECHCG [14]) | Pre-emergence action against DIGSA (DIGSA [15]) | Pre-emergence action against LOLRI (LOLRI) | Pre-emergence action against MATIN (MATIN [16]) | Post-emergence action against POAAN (POAAN [18]) | Pre-emergence action against ECHCG (ECHCG [19]) | Pre-emergence action against POAAN (POAAN [20])
90%: Post-emergence action against SETVI (SETVI [1]) | Pre-emergence action against ALOMY (ALOMY [3]) | Post-emergence action against KCHSC (KCHSC [4]) | Pre-emergence action against VERPE (VERPE [9]) | Post-emergence action against STEME (STEME [17])

CC(Oc1nn(-c2ccccc2F)c(-c2ccc(F)nc2)c1Br)C(=O)O (centres unmarked) [VII-096]
90%: Post-emergence action against SETVI (SETVI [1]) | Post-emergence action against VERPE (VERPE [2]) | Post-emergence action against KCHSC (KCHSC [4]) | Post-emergence action against MATIN (MATIN [12]) | Post-emergence action against ECHCG (ECHCG [14])
100%: Pre-emergence action against ALOMY (ALOMY [3]) | Post-emergence action against DIGSA (DIGSA [5]) | Pre-emergence action against SETVI (SETVI [6]) | Post-emergence action against ALOMY (ALOMY [7]) | Pre-emergence action against STEME (STEME [8]) | Pre-emergence action against VERPE (VERPE [9]) | Pre-emergence action against KCHSC (KCHSC [10]) | Post-emergence action against AMARE (AMARE [11]) | Pre-emergence action against AMARE (AMARE [13]) | Pre-emergence action against DIGSA (DIGSA [15]) | Pre-emergence action against LOLRI (LOLRI) | Pre-emergence action against MATIN (MATIN [16]) | Post-emergence action against STEME (STEME [17]) | Post-emergence action against POAAN (POAAN [18]) | Pre-emergence action against ECHCG (ECHCG [19]) | Pre-emergence action against POAAN (POAAN [20])
